From patent US9149475B2, “Protein kinase C inhibitors and uses thereof” (Rigel Pharmaceuticals, Inc., priority 2009, dated 2015) come the findings set out here.

pIC50: −log10 of the molar value.

One assay concerns Human primary T cells. As to the kind of experiment: IL-2 ELISA, human primary T cell, anti-CD3+CD28+ (whole cell assay). The assay is classed as cell-based. The conditions noted are these: Homo sapiens, T-cell, 24 h, human primary T cells stimulated with anti-CD3 + anti-CD28, 24 hours. The method, boiled down:
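PBMC-derived T cells, pre-expanded on αCD3/αCD28 with IL-2 and then washed free of IL-2, were preincubated with compound for 1 hr at 37° C (100,000 cells/well). They were then stimulated on 1 μg/ml αCD3 plus 5 μg/ml αCD28 for 24 h, and supernatant IL-2 was measured by ELISA. The counter-assay used 0.5 ng/ml PMA plus 0.1 μM ionomycin instead.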
(In general: In an ELISA, binding on a coated surface is turned into a signal by an enzyme label.)
The term pIC50 denotes the IC50 on a negative log10 scale, so that one unit is a factor of ten. On to `CCNC(=O)N1CCCC(Oc2ccc(Nc3ncc(F)c(NC4CC(C)(C)NC(C)(C)C4)n3)cc2OC(F)F)CC1` (stereo not drawn) [III-88, 4-(2-(difluoromethoxy)-4-(5-fluoro-4-(2,2,6,6-tetramethylpiperidin-4-ylamino)pyrimidin-2-ylamino)phenoxy)-N-ethylazepane-1-carboxamide], for which the pIC50 was < 6.00.
With `CC1(C)CC(Nc2nc(Nc3cc(C4CC4)cc(-n4cnnn4)c3)ncc2F)CC(C)(C)N1` [III-116, N^2-(3-cyclopropyl-5-(1H-tetrazol-1-yl)phenyl)-5-fluoro-N^4(2,2,6,6-tetramethylpiperidin-4-yl)pyrimidine-2,4-diamine], the pIC50 was > 6.60.
Take `CC1(C)CC(Nc2nc(Nc3ccc(OCCN4CCOCC4)c(C(F)(F)F)c3)ncc2F)CC(C)(C)N1` [Compound I-65, N2-(4-(2-morpholinoethoxy)-3-(trifluoromethyl)phenyl)-5-fluoro-N4-(2,2,6,6-tetramethylpiperidin-4-yl)pyrimidine-2,4-diamine]: the pIC50 is 6.00 to 6.30.
For the compound `CC(C)Oc1ncc(Nc2ncc(C#N)c(NC3CC(C)(C)N(C)C(C)(C)C3)n2)cc1-c1nnnn1C1CC1` [Compound I-139, 2-(5-(1-cyclopropyl-1H-tetrazol-5-yl)-6-isopropoxypyridin-3-ylamino)-4-(1,2,2,6,6-pentamethylpiperidin-4-ylamino)pyrimidine-5-carbonitrile], the pIC50 is > 6.60.
The same measure, in the same setting: under `CN1C(C)(C)CC(Nc2nc(Nc3cc(F)cc(OCCCn4cccc4)c3)ncc2F)CC1(C)C` [Compound I-36, N2-(3-(3-(1H-pyrrol-1-yl)propoxy)-5-fluorophenyl)-5-fluoro-N4-(1,2,2,6,6-pentamethylpiperidin-4-yl)pyrimidine-2,4-diamine] stands 6.00 to 6.30; under `CC1(C)CC(Nc2nc(Nc3ccc(OC4CCN(CCF)CC4)c(OC(F)F)c3)ncc2F)CC(C)(C)N1` [III-50, N2-(3-(difluoromethoxy)-4-(1-(2-fluoroethyl)piperidin-4-yloxy)phenyl)-5-fluoro-N4-(2,2,6,6-tetramethylpiperidin-4-yl)pyrimidine-2,4-diamine], 6.30 to 6.60; under `CC1(C)CC(Nc2nc(Nc3ccc(OCCN4CCCC4)c(OC(F)F)c3)ncc2F)CC(C)(C)N1` [Compound I-60, N2-(4-(2-(pyrrolidin-1-yl)ethoxy)-3-(difluoromethoxy)phenyl)-5-fluoro-N4-(2,2,6,6-tetramethylpiperidin-4-yl)pyrimidine-2,4-diamine], 6.00 to 6.30.
For `CN1C(C)(C)CC(Nc2nc(Nc3ccc(-c4cccnc4)c(OC(F)F)c3)ncc2F)CC1(C)C` [Compound I-64, N2-(3-(difluoromethoxy)-4-(pyridin-3-yl)phenyl)-5-fluoro-N4-(1,2,2,6,6-pentamethylpiperidin-4-yl)pyrimidine-2,4-diamine], the pIC50 is > 6.60.
With `CC1(C)CC(Nc2nc(Nc3ccc(OCCCN4CCOCC4)c(OC(F)F)c3)ncc2F)CC(C)(C)N1` [Compound I-47, N2-(4-(3-morpholinopropoxy)-3-(difluoromethoxy)phenyl)-5-fluoro-N4-(2,2,6,6-tetramethylpiperidin-4-yl)pyrimidine-2,4-diamine], the pIC50 is 6.00 to 6.30.
The same measure, in the same setting: under `CC1(C)CC(Nc2nc(Nc3ccc(OCCn4cncn4)c(OC(F)F)c3)ncc2F)CC(C)(C)N1` [Compound I-25, N2-(4-(2-(1H-1,2,4-triazol-1-yl)ethoxy)-3-(difluoromethoxy)phenyl)-5-fluoro-N4-(2,2,6,6-tetramethylpiperidin-4-yl)pyrimidine-2,4-diamine] stands < 6.00; under `CC1(C)CC(Nc2nc(Nc3ccc(OC4CCN(CCF)CC4)c(Cl)c3)ncc2F)CC(C)(C)N1` [III-96, N2-(3-chloro-4-(1-(2-fluoroethyl)piperidin-4-yloxy)phenyl)-5-fluoro-N4-(2,2,6,6-tetramethylpiperidin-4-yl)pyrimidine-2,4-diamine], > 6.60; under `COCCn1nnnc1-c1cc(Nc2ncc(F)c(NC3CC(C)(C)NC(C)(C)C3)n2)ccc1F` [III-129, 5-fluoro-N2-(4-fluoro-3-(1-(2-methoxyethyl)-1H-tetrazol-5-yl)phenyl)-N4-(2,2,6,6-tetramethylpiperidin-4-yl)pyrimidine-2,4-diamine], < 6.00.
As for `Cc1ccc(C)n1-c1cc(Nc2ncc(F)c(NC3CC(C)(C)NC(C)(C)C3)n2)ccc1OC(F)F` [Compound I-5, N2-(4-(difluoromethoxy)-3-(2,5-dimethyl-1H-pyrrol-1-yl)phenyl)-5-fluoro-N4-(2,2,6,6-tetramethylpiperidin-4-yl)pyrimidine-2,4-diamine], the negative-log IC50 (pIC50) is 6.00 to 6.30.
Same read-out and setting: under `CN1C(C)(C)CC(Nc2nc(Nc3ccc(F)c(-c4nnnn4C)c3)ncc2F)CC1(C)C` [III-121, 5-fluoro-N2-(4-fluoro-3-(1-methyl-1H-tetrazol-5-yl)phenyl)-N4-(1,2,2,6,6-pentamethylpiperidin-4-yl)pyrimidine-2,4-diamine] stands > 6.60; under `CN1C(C)(C)CC(Nc2nc(Nc3ccc(OC4CCN(S(C)(=O)=O)CC4)c(OC(F)F)c3)ncc2F)CC1(C)C` [III-20, N2-(3-(difluoromethoxy)-4-(1-(methylsulfonyl)piperidin-4-yloxy)phenyl)-5-fluoro-N4-(1,2,2,6,6-pentamethylpiperidin-4-yl)pyrimidine-2,4-diamine], 6.30 to 6.60.
Regarding `CC1(C)CC(Nc2nc(Nc3cc(F)cc(OCCn4ccnn4)c3)ncc2C#N)CC(C)(C)N1` [Compound I-17, 4-(2,2,6,6-tetramethylpiperidin-4-ylamino)-2-(3-(2-(1H-1,2,3-triazol-1-yl)ethoxy)-5-fluorophenylamino)pyrimidine-5-carbonitrile], the pIC50 was < 6.00.
Regarding `CN1C(C)(C)CC(Nc2nc(Nc3cccc(-n4cncn4)c3)ncc2F)CC1(C)C` [Compound I-12, N2-(3-(1H-1,2,4-triazol-1-yl)phenyl)-5-fluoro-N4-(1,2,2,6,6-pentamethylpiperidin-4-yl)pyrimidine-2,4-diamine], the negative logarithm of the IC50 (pIC50) is 6.00 to 6.30.
Regarding `CN1C(C)(C)CC(Nc2nc(Nc3cccc(-n4cccn4)c3)ncc2F)CC1(C)C` [Compound I-22, N2-(3-(1H-pyrazol-1-yl)phenyl)-5-fluoro-N4-(1,2,2,6,6-pentamethylpiperidin-4-yl)pyrimidine-2,4-diamine], the pIC50 was 6.00 to 6.30.

The assay is the same for the next values; noted with them: human primary T cells stimulated with anti-CD3 + anti-CD28, 24 hours.
As for `CCCc1nnnn1-c1cc(Nc2ncc(C#N)c(NC3CC(C)(C)NC(C)(C)C3)n2)ccc1OC` [Compound I-81, 5-cyano-N2-[4-methoxy-3-(5-propyl-1H-tetrazol-1-yl)]phenyl-N4-(2,2,6,6-tetramethylpiperidin-4-yl)-2,4-pyrimidinediamine], the pIC50 is 6.30 to 6.60.
Regarding `CC1(C)CC(Nc2nc(Nc3ccc(F)c(-n4cnnn4)c3)ncc2C#N)CC(C)(C)N1` [Compound I-77, 5-cyano-N2-[4-fluoro-3-(1H-tetrazol-1-yl)]phenyl-N4-(2,2,6,6-tetramethylpiperidin-4-yl)-2,4-pyrimidinediamine], the pIC50 was 6.30 to 6.60.
In the case of `CCCc1nnnn1-c1cc(Nc2ncc(C#N)c(NC3CC(C)(C)N(C)C(C)(C)C3)n2)ccc1OC` [Compound I-80, 5-cyano-N2-[4-methoxy-3-(5-propyl-1H-tetrazol-1-yl)]phenyl-N4-(1,2,2,6,6-pentamethylpiperidin-4-yl)-2,4-pyrimidinediamine], the pIC50 is > 6.60.
